{"source": "patent US10464915B2", "about": "“Dapagliflozin crystal form and preparation method and use thereof” (Jiangsu Hansoh Pharmaceutical Group Co., Ltd., priority 2016, dated 2019)", "key": {"[1]": {"settings": "directly compressed, control pressure 10 KN; crystal form prepared in Example 8; FIG. 4", "text": "The crystal form prepared in the Example 8 of the present invention was directly compressed by a tableting machine, and the control pressure was 10 KN."}, "[2]": {"settings": "25° C."}}, "note": "Where two headings read alike, the source gives them in different places."}
{"smiles": "CCOc1ccc(Cc2cc([C@@H]3O[C@H](CO)[C@@H](O)[C@H](O)[C@H]3O)ccc2Cl)cc1", "note": "[Crystal form E, 2-chloro-5-(β-D-glucopyranosyl-1-yl)-4′-ethoxydiphenylmethane]", "values": [{"measurement": "Crystal form", "setting": "40° C., 0 day", "result": "Crystal form E"}, {"measurement": "Purity", "setting": "40° C., 0 day", "result": 99.9, "unit": "%"}, {"measurement": "Crystal form", "setting": "40° C., 5 days", "result": "Crystal form E"}, {"measurement": "Purity", "setting": "40° C., 5 days", "result": 99.9, "unit": "%"}, {"measurement": "Crystal form", "setting": "40° C., 10 days", "result": "Crystal form E"}, {"measurement": "Purity", "setting": "40° C., 10 days", "result": 99.9, "unit": "%"}, {"measurement": "Crystal form", "setting": "40° C., 30 days", "result": "Crystal form E"}, {"measurement": "Purity", "setting": "40° C., 30 days", "result": 99.9, "unit": "%"}, {"measurement": "Crystal form", "setting": "Lighting (5000 lux), 0 day", "result": "Crystal form E"}, {"measurement": "Purity", "setting": "Lighting (5000 lux), 0 day", "result": 99.9, "unit": "%"}, {"measurement": "Crystal form", "setting": "Lighting (5000 lux), 5 days", "result": "Crystal form E"}, {"measurement": "Purity", "setting": "Lighting (5000 lux), 5 days", "result": 99.9, "unit": "%"}, {"measurement": "Crystal form", "setting": "Lighting (5000 lux), 10 days", "result": "Crystal form E"}, {"measurement": "Purity", "setting": "Lighting (5000 lux), 10 days", "result": 99.9, "unit": "%"}, {"measurement": "Crystal form", "setting": "Lighting (5000 lux), 30 days", "result": "Crystal form E"}, {"measurement": "Purity", "setting": "Lighting (5000 lux), 30 days", "result": 99.9, "unit": "%"}, {"measurement": "Time stable", "setting": "high temperature (40° C.)", "result": "at least 30 days"}, {"measurement": "Time stable", "setting": "lighting (5000 Lux)", "result": "at least 30 days"}, {"measurement": "Crystal form transformation under tableting", "setting": "[1]", "result": "didn't undergo crystal form transformation"}, {"measurement": "Time stable", "setting": "[2]", "result": "at least 6 months"}, {"measurement": "Crystal form", "setting": "[2]; 0 day", "result": "Crystal form E"}, {"measurement": "Purity", "setting": "[2]; 0 day", "result": 99.9, "unit": "%"}, {"measurement": "Crystal form", "setting": "[2]; 1 month", "result": "Crystal form E"}, {"measurement": "Purity", "setting": "[2]; 1 month", "result": 99.9, "unit": "%"}, {"measurement": "Crystal form", "setting": "[2]; 3 months", "result": "Crystal form E"}, {"measurement": "Purity", "setting": "[2]; 3 months", "result": 99.9, "unit": "%"}, {"measurement": "Crystal form", "setting": "[2]; 6 months", "result": "Crystal form E"}, {"measurement": "Purity", "setting": "[2]; 6 months", "result": 99.9, "unit": "%"}]}
